Test results published in patent US20120115827A1, “3-AMINOBENZAMIDE COMPOUNDS AND VANILLOID RECEPTOR SUBTYPE 1 (VR1) INHIBITORS” (Japan Tobacco Inc., priority 2004, published 2012).

Each compound was assayed against T1, human VR1 (Homo sapiens, UniProt Q8NER1) (assay: Inhibition of Ca2+ entry in cells caused by proton (VR1 agonist)). Conditions: Rat glioma (C6BU1) cells stably expressing human VR1; proton stimulation to pH 5.5; Fura 2-AM fluorescence; read-out: In vitro IC50.
T1 construct: expressed in transfected cells
T1 sequence (Q8NER1 whole entry): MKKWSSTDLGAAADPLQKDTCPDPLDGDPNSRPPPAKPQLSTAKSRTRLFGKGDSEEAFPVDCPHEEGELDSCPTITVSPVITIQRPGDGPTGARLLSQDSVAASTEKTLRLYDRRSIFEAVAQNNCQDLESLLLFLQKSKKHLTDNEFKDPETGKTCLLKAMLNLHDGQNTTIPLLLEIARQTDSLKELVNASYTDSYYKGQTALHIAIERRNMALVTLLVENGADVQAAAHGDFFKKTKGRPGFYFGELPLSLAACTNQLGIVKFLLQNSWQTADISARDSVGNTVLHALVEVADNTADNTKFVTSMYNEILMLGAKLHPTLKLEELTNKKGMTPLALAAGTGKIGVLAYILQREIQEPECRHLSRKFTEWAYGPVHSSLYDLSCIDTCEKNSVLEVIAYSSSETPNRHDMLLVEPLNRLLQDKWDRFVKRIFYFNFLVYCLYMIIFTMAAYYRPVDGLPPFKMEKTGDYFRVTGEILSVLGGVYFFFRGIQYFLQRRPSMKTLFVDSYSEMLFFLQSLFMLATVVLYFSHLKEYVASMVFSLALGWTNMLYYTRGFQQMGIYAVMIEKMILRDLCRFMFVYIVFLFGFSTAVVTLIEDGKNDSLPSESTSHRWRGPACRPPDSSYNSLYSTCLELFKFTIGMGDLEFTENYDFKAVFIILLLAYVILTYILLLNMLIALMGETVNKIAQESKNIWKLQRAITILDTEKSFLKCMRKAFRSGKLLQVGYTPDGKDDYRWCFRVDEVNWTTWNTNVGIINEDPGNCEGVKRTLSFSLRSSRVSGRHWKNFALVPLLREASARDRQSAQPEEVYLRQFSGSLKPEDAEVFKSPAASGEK
Type: cell-based
Description: The assay for evaluation of VR1 inhibition by the inventive compounds will be described below. The assay was intended to evaluate in vitro inhibition of Ca^2+ entry in cells caused by proton, one of the VR1 agonists.
Rat glioma (C6BU1) cells stably expressing human VR1 were suspended in 20 mM MES buffer (at pH 6.8, contg. 20 mM 2-morpholinoethanesulfonate (referred to as MES hereinafter), 115 mM NaCl, 5 mM KCl, 1 mM MgCl2 and 14 mM D-glucose) to make a cell density of 1×10^6 cells/mL. A fluorescent dye, Fura 2-AM solution (Dojindo Corporate, Cat. No. 343-05401) was added to the suspension to make a 5 μM concentration thereof. Further, Pluronic F-127 (Wako Pure Chemical Industries, Ltd., Cat. No. P6866) was added to make a 0.1% content thereof. Then, the suspension was incubated at 37° C. for 30 min. The cells were harvested and washed three times with 20 mM MES buffer. The cells were suspended again to make a cell density of 5×10^5 cells/mL. A 500-μL portion of the suspension was taken with a cuvette (MC MEDICAL, INC., Cat. No. SSR3121), to which […] MES buffer containing 250 mM CaCl2 was added to incorporate Ca^2+ into the cells. At the same time, 5 μL of a test compound solution (in a range of 100 μM to 10 nM in DMSO) was also added to provide a final concentration thereof in a range of 1 μM to 0.1 nM. Alternatively, 5 μl of DMSO was added as control to provide a final concentration of 1% DMSO. The suspension was set in an intracellular ionometer (CAF-110; JASCO) 10 min after those additions. The cells were stimulated with protons by addition of 60 μL of 20 mM MES buffer at pH 1.1 to the suspension to set its pH at 5.5. The activity of the test compound was determined as a difference between the minimum of fluorescence intensity before agonist stimulation and its maximum after the stimulation. The value of IC50 was derived from percentage of inhibition by the test compound compared with the control.
With `O=C(Nc1ccc(Cl)cc1)c1ccc(Cl)c(N(CCO)c2ncccc2Cl)c1` [Example 36, 4-chloro-N-(4-chlorophenyl)-3-[N-(3-chloropyridin-2-yl)-N-(2-hydroxyethyl)amino]-benzamide] the IC50 was at most 100 nM. Compound `CC(C)c1ccc(NC(=O)c2ccc(Cl)c(N(CCO)c3ncccc3Cl)c2)cc1` [Example 37, 4-chloro-3-[N-(3-chloropyridin-2-yl)-N-(2-hydroxyethyl)amino]-N-(4-isopropylphenyl)-benzamide] has an IC50 of at most 100 nM. Compound `O=C(Nc1ccc(Cl)c(C(F)(F)F)c1)c1ccc(Cl)c(N(CCO)c2ncccc2Cl)c1` [Example 39, 4-chloro-3-[N-(3-chloropyridin-2-yl)-N-(2-hydroxyethyl)amino]-N-(4-chloro-3-trifluoromethylphenyl)benzamide] has an IC50 of at most 100 nM. Work on `O=C(Nc1ccc(C(F)(F)F)nc1)c1ccc(Cl)c(N(CCO)c2ncccc2Cl)c1` [Example 40, 4-chloro-3-[N-(3-chloropyridin-2-yl)-N-(2-hydroxyethyl)amino]-N-(2-trifluoromethylpyridine-5-yl)benzamide] yielded an IC50 of at most 100 nM. For `CC(C)Oc1ccc(NC(=O)c2ccc(Cl)c(N(CCO)c3ncccc3Cl)c2)cc1` [Example 41, 4-chloro-3-[N-(3-chloropyridin-2-yl)-N-(2-hydroxyethyl)amino]-N-(4-isopropyloxyphenyl)-benzamide], the IC50 was at most 100 nM. `O=C(Nc1ccc(N2CCCCC2)c(F)c1)c1ccc(Cl)c(N(CCO)c2ncccc2Cl)c1` [Example 43, 4-chloro-3-[N-(3-chloropyridin-2-yl)-N-(2-hydroxyethyl)amino]-N-(3-fluoro-4-piperidinylphenyl)-benzamide] showed an IC50 of at most 100 nM. In the case of `CC(C)(C)c1ccc(NC(=O)c2ccc(Cl)c(N(CCCO)c3ncccc3Cl)c2)cc1` [Example 45, 4-chloro-3-[N-(3-chloropyridin-2-yl)-N-(3-hydroxypropyl)amino]-N-(4-tert-butylphenyl)-benzamide], the IC50 is reported as at most 100 nM. For `CC(C)(C)c1ccc(NC(=O)c2ccc(Cl)c(N(CC(=O)O)c3ncccc3Cl)c2)cc1` [Example 46, N-(3-chloropyridin-2-yl)-N-{2-chloro-5-[N-(4-tert-butylphenyl)carbamoyl]phenyl}-aminoacetic acid], the IC50 was at most 100 nM. In the case of `CC(C)(C)c1ccc(NC(=O)c2ccc(Cl)c(N(CC(N)=O)c3ncccc3Cl)c2)cc1` [Example 47, 4-chloro-3-[N-(3-chloropyridin-2-yl)-N-(carbamoylmethyl)amino]-N-(4-tert-butylphenyl)-benzamide], the IC50 is reported as at most 100 nM. Work on `CNC(=O)CN(c1cc(C(=O)Nc2ccc(C(C)(C)C)cc2)ccc1Cl)c1ncccc1Cl` [Example 48, 4-chloro-3-[N-(3-chloropyridin-2-yl)-N-(N-methylcarbamoylmethyl)amino]-N-(4-tert-butylphenyl)-benzamide] yielded an IC50 of at most 100 nM. Compound `CN(C)C(=O)CN(c1cc(C(=O)Nc2ccc(C(C)(C)C)cc2)ccc1Cl)c1ncccc1Cl` [Example 49, 4-chloro-3-[N-(3-chloropyridin-2-yl)-N—(N,N-dimethylcarbamoylmethyl)amino]-N-(4-tert-butylphenyl)-benzamide] has an IC50 of 100 to 1000 nM. `COc1ccc(C(=O)Nc2ccc(OCC(C)C)cc2)cc1N(CCO)c1ncccc1Cl` [Example 50, 3-[N-(3-chloropyridin-2-yl)-N-(2-hydroxyethyl)amino]-N-(4-isobutyloxyphenyl)-4-methoxy-benzamide] showed an IC50 of at most 100 nM. For `COc1ccc(C(=O)Nc2ccc(OCC(C)C)cc2)cc1N(CCO)c1ccc(C)cn1` [Example 51, N-(4-isobutyloxyphenyl)-4-methoxy-3-[N-(5-methylpyridin-2-yl)-N-(2-hydroxyethyl)amino]-benzamide], the IC50 was at most 100 nM. In the case of `CC(C)COc1ccc(NC(=O)c2cccc(N(CCO)c3ncccc3Cl)c2)cc1` [Example 52, 3-[N-(3-chloropyridin-2-yl)-N-(2-hydroxyethyl)amino]-N-(4-isobutyloxyphenyl)-benzamide], the IC50 is reported as at most 100 nM. In the case of `CC(C)(C)c1ccc(NC(=O)c2cccc(N(CCO)c3ncccc3Cl)c2)cc1` [Example 53, N-(4-tert-butylphenyl)-3-[N-(3-chloropyridin-2-yl)-N-(2-hydroxyethyl)amino]-benzamide], the IC50 is reported as at most 100 nM. Work on `O=C(Nc1ccc(C(F)(F)F)cc1)c1cccc(N(CCO)c2ncccc2Cl)c1` [Example 54, 3-[N-(3-chloropyridin-2-yl)-N-(2-hydroxyethyl)amino]-N-(4-trifluoromethylphenyl)-benzamide] yielded an IC50 of at most 100 nM. Compound `CNC(=O)c1cc(NC(=O)c2ccc(Cl)c(N(CCO)c3ncccc3Cl)c2)ccc1OCC(C)C` [Example 55, 4-chloro-3-[N-(3-chloropyridin-2-yl)-N-(2-hydroxyethyl)amino]-N-(4-isobutyloxy-3-methylcarbamoylphenyl)-benzamide] has an IC50 of at most 100 nM. In the case of `CC(C)COc1ccc(NC(=O)c2ccc(Cl)c(N(CCO)c3ncccc3Cl)c2)cc1C(=O)N(C)C` [Example 56, 4-chloro-3-[N-(3-chloropyridin-2-yl)-N-(2-hydroxyethyl)amino]-N-(3-dimethylcarbamoyl-4-isobutyloxyphenyl)-benzamide], the IC50 is reported as at most 100 nM. Work on `CC(C)(C)c1ccc(NC(=O)c2ccc(Cl)c(N(CC(=O)NCCO)c3ncccc3Cl)c2)cc1` [Example 57, N-(4-tert-butylphenyl)-4-chloro-3-{N-(3-chloropyridin-2-yl)-N—[N-(2-hydroxyethyl)carbamoylmethyl]amino}-benzamide] yielded an IC50 of at most 100 nM. In the case of `NC(=O)CN(c1cc(C(=O)Nc2ccc(C(F)(F)F)cc2)ccc1Cl)c1ncccc1Cl` [Example 59, 4-chloro-3-[N-(3-chloropyridin-2-yl)-N-(carbamoylmethyl)amino]-N-(4-trifluoromethylphenyl)-benzamide], the IC50 is reported as at most 100 nM. `NC(=O)CN(c1cc(C(=O)Nc2ccc(OC(F)(F)F)cc2)ccc1Cl)c1ncccc1Cl` [Example 60, 4-chloro-3-[N-(3-chloropyridin-2-yl)-N-(carbamoylmethyl)amino]-N-(4-trifluoromethoxyphenyl)-benzamide] was tested, and the IC50 was at most 100 nM. With `CC(C)COc1ccc(NC(=O)c2ccc(Cl)c(N(CC(N)=O)c3ncccc3Cl)c2)cc1` [Example 61, 4-chloro-3-[N-(3-chloropyridin-2-yl)-N-(carbamoylmethyl)amino]-N-(4-isobutyloxyphenyl)-benzamide] the IC50 was at most 100 nM. For `NC(=O)CN(c1cc(C(=O)Nc2ccc(N3CCCCC3)c(F)c2)ccc1Cl)c1ncccc1Cl` [Example 62, 4-chloro-3-[N-(3-chloropyridin-2-yl)-N-(carbamoylmethyl)amino]-N-(3-fluoro-4-piperidinophenyl)-benzamide], the IC50 was at most 100 nM. With `Cc1ccc(C(=O)Nc2ccc(C(F)(F)F)cc2)cc1N(CC(N)=O)c1ncccc1Cl` [Example 63, 3-[N-(3-chloropyridin-2-yl)-N-(carbamoylmethyl)amino]-4-methyl-N-(4-trifluoromethylphenyl)-benzamide] the IC50 was at most 100 nM. `Cc1ccc(C(=O)Nc2ccc(OC(F)(F)F)cc2)cc1N(CC(N)=O)c1ncccc1Cl` [Example 64, 3-[N-(3-chloropyridin-2-yl)-N-(carbamoylmethyl)amino]-4-methyl-N-(4-trifluoromethoxyphenyl)-benzamide] was tested, and the IC50 was at most 100 nM. In the case of `Cc1ccc(C(=O)Nc2ccc(OCC(C)C)cc2)cc1N(CC(N)=O)c1ncccc1Cl` [Example 65], the IC50 is reported as at most 100 nM. Compound `CNC(=O)CN(c1cc(C(=O)Nc2ccc(C(F)(F)F)cc2)ccc1Cl)c1ncccc1Cl` [Example 66, 4-chloro-3-[N-(3-chloropyridin-2-yl)-N-(N-methylcarbamoylmethyl)amino]-N-(4-trifluoromethylphenyl)-benzamide] has an IC50 of at most 100 nM. Work on `NC(=O)CN(c1cc(C(=O)Nc2ccc(OC(F)(F)F)cc2)ccc1Cl)c1ncc(C(F)(F)F)cc1Cl` [Example 67, 4-chloro-3-[N-(3-chloro-5-trifluoromethylpyridin-2-yl)-N-(carbamoylmethyl)amino]-N-(4-trifluoromethoxyphenyl)-benzamide] yielded an IC50 of at most 100 nM. In the case of `NC(=O)CN(c1cc(C(=O)Nc2ccc(C(F)(F)F)cc2)ccc1Cl)c1ncc(C(F)(F)F)cc1Cl` [Example 68, 4-chloro-3-[N-(3-chloro-5-trifluoromethylpyridin-2-yl)-N-(carbamoylmethyl)amino]-N-(4-trifluoromethylphenyl)-benzamide], the IC50 is reported as at most 100 nM. Compound `NC(=O)CN(c1ccc(Cl)cn1)c1cc(C(=O)Nc2ccc(OC(F)(F)F)cc2)ccc1Cl` [Example 69] has an IC50 of at most 100 nM. `NC(=O)CN(c1ccc(Cl)cn1)c1cc(C(=O)Nc2ccc(C(F)(F)F)cc2)ccc1Cl` [Example 70] showed an IC50 of at most 100 nM. For `COCc1cnc(N(CC(N)=O)c2cc(C(=O)Nc3ccc(OC(F)(F)F)cc3)ccc2Cl)c(Cl)c1` [Example 71, 4-chloro-3-[N-(3-chloro-5-methoxymethylpyridin-2-yl)-N-(carbamoylmethyl)amino]-N-(trifluoromethoxyphenyl)-benzamide], the IC50 was at most 100 nM.
